Results: patent US8623859B2, “Bradykinin B1 antagonists” (Evotec AG, priority 2008, dated 2014)
Counter-ions that a name gives are not always drawn.

Target: T1, human B1 (Homo sapiens, UniProt P46663)
T1 construct: host or cells: CHO-K1
T1 sequence (P46663 1-353): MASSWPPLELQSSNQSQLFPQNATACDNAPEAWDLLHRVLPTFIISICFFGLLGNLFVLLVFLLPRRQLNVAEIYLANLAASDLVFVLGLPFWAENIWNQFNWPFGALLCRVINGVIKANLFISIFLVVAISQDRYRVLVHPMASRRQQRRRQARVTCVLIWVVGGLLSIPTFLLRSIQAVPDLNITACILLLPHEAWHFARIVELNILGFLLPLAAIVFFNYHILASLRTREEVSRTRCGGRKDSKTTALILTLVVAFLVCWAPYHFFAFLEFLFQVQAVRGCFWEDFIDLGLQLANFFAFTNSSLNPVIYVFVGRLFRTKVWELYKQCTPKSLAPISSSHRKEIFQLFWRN
Assay: Calcium flux assay for Bradykinin B1 antagonist, CHO-K1 cell line expressing human B1
Type: cell-based
Settings: CHO-K1 cells expressing human B1, agonist Lys-(Des-Arg)-Bradykinin, read-out: Potency (IC50 value against human B1)
Summary of the method: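 CHO-K1 cells expressing human B1, loaded with 5 μM Fluo-4AM (2 h, 37° C) in HEPES buffer pH 7.4 with probenecid and 0.1% BSA, were preincubated 30 min at 25° C with compound (8 concentrations, triplicate, 1% DMSO) before B1 agonist addition. Ca2+ fluorescence monitored at 538 nm; background-normalized integrated values plotted against log antagonist concentration.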

| Compound | IC50 [nM] |
| --- | --- |
| COc1cc(C)c(S(=O)(=O)N(Cc2nc(C(=O)N3CCN(Cc4c[nH]nc4C)CC3)co2)C2CC2)c(C)c1 [Ex 255, N-Cyclopropyl-4-methoxy-2,6-dimethyl-N-{[4-({4-[(3-methyl-1H-pyrazol-4-yl)methyl]piperazin-1-yl}carbonyl)-1,3-oxazol-2-yl]methyl}benzenesulfonamide] | 10 to 100 |
| COc1cc(C)c(S(=O)(=O)N(C)Cc2cc(C(=O)N(C)Cc3ccc(CN4CCCC(OC)C4)cc3)co2)c(C)c1 (stereo not shown) [Ex 130, 5-({[(4-Methoxy-2,6-dimethylphenyl)sulfonyl](methyl)amino}methyl)-N-{4-[(3-methoxypiperidin-1-yl)methyl]benzyl}-N-methylfuran-3-carboxamide] | 100 to 1000 |
| CN(CCc1ccc(C2=NCCN2)cc1)C(=O)c1coc(CN(C)S(=O)(=O)c2ccc(Cl)cc2Cl)c1 [Ex 22, 5-({[(2,4-dichlorophenyl)sulfonyl](methyl)amino}methyl)-N-{2-[4-(4,5-dihydro-1H-imidazol-2-yl)phenyl]ethyl}-N-methylfuran-3-carboxamide] | 100 to 1000 |
| COc1cc(C)c(S(=O)(=O)N(C)Cc2nc(C(=O)N(C)Cc3ccc(CN4CC(OC)C4)cc3)co2)c(C)c1 [Ex 173, N-{4-[(3-Methoxyazetidin-1-yl)methyl]benzyl}-2-({[(4-methoxy-2,6-dimethylphenyl)sulfonyl](methyl)amino}methyl)-N-methyl-1,3-oxazole-4-carboxamide] | 10 to 100 |
| COc1cc(C)c(S(=O)(=O)N(C)Cc2nnc(C(=O)N(C)Cc3ccc(CN4CCCC4)cc3)o2)c(C)c1 [Ex 268, 5-({[(4-Methoxy-2,6-dimethylphenyl)sulfonyl](methyl)amino}methyl)-N-methyl-N-[4-(pyrrolidin-1-ylmethyl)benzyl]-1,3,4-oxadiazole-2-carboxamide trifluoroacetate] | 10 to 100 |
| COc1cc(C)c(S(=O)(=O)N(Cc2cc(C(=O)N3CCN(CCCN4CCCC4)CC3)co2)C2CC2)c(C)c1 [Ex 115, N-Cyclopropyl-4-methoxy-2,6-dimethyl-N-[(4-{[4-(3-pyrrolidin-1-ylpropyl)piperazin-1-yl]carbonyl}furan-2-yl)methyl]benzenesulfonamide trifluoroacetate] | 10 to 100 |
| COc1cc(C)c(S(=O)(=O)N(C)Cc2cc(C(=O)NCc3ccc(CN4CCC4)cc3)co2)c(C)c1 [Ex 97, N-[4-(Azetidin-1-ylmethyl)benzyl]-5-({[(4-methoxy-2,6-dimethylphenyl)sulfonyl](methyl)amino}methyl)furan-3-carboxamide trifluoroacetate] | 10 to 100 |
| COc1cc(C)c(S(=O)(=O)N(Cc2cc(C(=O)N3CCN(C4CCN(C)CC4)CC3)co2)C2CC2)c(C)c1 [Ex 53, N-cyclopropyl-4-methoxy-2,6-dimethyl-N-[(4-{[4-(1-methylpiperidin-4-yl)piperazin-1-yl]carbonyl}furan-2-yl)methyl]benzenesulfonamide] | 100 to 1000 |
| COc1cc(C)c(S(=O)(=O)N(C)Cc2nnc(C(=O)N(C)Cc3ccc(CN4CCC(N(C)C)C4)cc3)o2)c(C)c1 (stereo not shown) [Ex 285, N-(4-{[3-(Dimethylamino)pyrrolidin-1-yl]methyl}benzyl)-5-({[(4-methoxy-2,6-dimethylphenyl)sulfonyl](methyl)amino}methyl)-N-methyl-1,3,4-oxadiazole-2-carboxamide] | 100 to 1000 |
| COc1cc(C)c(S(=O)(=O)N(C)Cc2nc(C(=O)N(C)Cc3ccc(CN4CCC(OC)CC4)cc3)co2)c(C)c1 [Ex 167, 2-({[(4-Methoxy-2,6-dimethylphenyl)sulfonyl](methyl)amino}methyl)-N-{4-[(4-methoxypiperidin-1-yl)methyl]benzyl}-N-methyl-1,3-oxazole-4-carboxamide] | < 10 |
| COc1cc(C)c(S(=O)(=O)N(Cc2nc(C(=O)N(C)Cc3ccc(CN4CCC(O)C4)cc3)co2)C2CC2)c(C)c1 (stereo not shown) [Ex 176, 2-({Cyclopropyl[(4-methoxy-2,6-dimethylphenyl)sulfonyl]amino}methyl)-N-{4-[(3-hydroxypyrrolidin-1-yl)methyl]benzyl}-N-methyl-1,3-oxazole-4-carboxamide] | < 10 |
| COc1cc(C)c(S(=O)(=O)N(Cc2nc(C(=O)N(C)Cc3ccc(CN4CC(O)C(O)C4)cc3)co2)C2CC2)c(C)c1 (stereo not shown) [Ex 189, 2-({Cyclopropyl[(4-methoxy-2,6-dimethylphenyl)sulfonyl]amino}methyl)-N-{4-[(3,4-dihydroxypyrrolidin-1-yl)methyl]benzyl}-N-methyl-1,3-oxazole-4-carboxamide] | < 10 |
| COc1cc(C)c(S(=O)(=O)N(Cc2nc(C(=O)N3CCC(CCN4CCCC4)CC3)co2)C2CC2)c(C)c1 [Ex 193, N-Cyclopropyl-4-methoxy-2,6-dimethyl-N-[(4-{[4-(2-pyrrolidin-1-ylethyl)piperidin-1-yl]carbonyl}-1,3-oxazol-2-yl)methyl]benzenesulfonamide trifluoroacetate] | < 10 |
| COc1cc(C)c(S(=O)(=O)N(Cc2cc(C(=O)N(C)Cc3ccc(CN4CCC(N(C)C)C4)cc3)co2)C2CC2)c(C)c1 (stereo not shown) [Ex 140, 5-({Cyclopropyl[(4-methoxy-2,6-dimethylphenyl)sulfonyl]amino}methyl)-N-(4-{[3-(dimethylamino)pyrrolidin-1-yl]methyl}benzyl)-N-methylfuran-3-carboxamide] | 10 to 100 |
| COc1cc(C)c(S(=O)(=O)N(C)Cc2cc(C(=O)NCCc3ccc(Nc4cccc[n+]4C)cc3)co2)c(C)c1 [Ex 13, 2-({4-[2-({[5-({[(4-methoxy-2,6-dimethylphenyl)sulfonyl](methyl)amino}methyl)furan-3-yl]carbonyl}amino)ethyl]phenyl}amino)-1-methylpyridinium iodide] | < 10 |
| COc1cc(C)c(S(=O)(=O)N(Cc2cc(C(=O)N(C)Cc3ccc(CN4CCCC4)cc3)co2)C2CC2)c(C)c1 [Ex 57, 5-({Cyclopropyl[(4-methoxy-2,6-dimethylphenyl)sulfonyl]amino}methyl)-N-methyl-N-[4-(pyrrolidin-1-ylmethyl)benzyl]furan-3-carboxamide] | 10 to 100 |
| COc1cc(C)c(S(=O)(=O)N(Cc2nc(C(=O)N(C)Cc3csc(CN4CCCC4)n3)co2)C2CC2)c(C)c1 [Ex 160, 2-({Cyclopropyl[(4-methoxy-2,6-dimethylphenyl)sulfonyl]amino}methyl)-N-methyl-N-{[2-(pyrrolidin-1-ylmethyl)-1,3-thiazol-4-yl]methyl}-1,3-oxazole-4-carboxamide] | 10 to 100 |
| COc1cc(C)c(S(=O)(=O)N(C)Cc2nc(C(=O)N(C)Cc3ccc(CN4CCC(O)CC4)cc3)co2)c(C)c1 [Ex 166, N-{4-[(4-Hydroxypiperidin-1-yl)methyl]benzyl}-2-({[(4-methoxy-2,6-dimethylphenyl)sulfonyl](methyl)amino}methyl)-N-methyl-1,3-oxazole-4-carboxamide] | < 10 |
| COc1cc(C)c(S(=O)(=O)N(C)Cc2cc(C(=O)N(C)Cc3ccc(CN4CCCC4)c(F)c3)co2)c(C)c1 [Ex 157, N-[3-Fluoro-4-(pyrrolidin-1-ylmethyl)benzyl]-5-({[(4-methoxy-2,6-dimethylphenyl)sulfonyl](methyl)amino}methyl)-N-methylfuran-3-carboxamide trifluoroacetate] | 10 to 100 |
| COc1cc(C)c(S(=O)(=O)N(C)Cc2cc(C(=O)N(C)Cc3ccc(CN4CCC(O)C4)cc3)co2)c(C)c1 (stereo not shown) [Ex 135, N-{4-[(3-Hydroxypyrrolidin-1-yl)methyl]benzyl}-5-({[(4-methoxy-2,6-dimethylphenyl)sulfonyl](methyl)amino}methyl)-N-methylfuran-3-carboxamide] | 10 to 100 |
| COc1cc(C)c(S(=O)(=O)N(Cc2cc(C(=O)N(C)Cc3ccc(C4=NCCN4)cc3)co2)c2ccccc2)c(C)c1 [Ex 50, N-[4-(4,5-dihydro-1H-imidazol-2-yl)benzyl]-5-({[(4-methoxy-2,6-dimethylphenyl)sulfonyl] (phenyl)amino}methyl)-N-methylfuran-3-carboxamide] | 100 to 1000 |
| COc1cc(C)c(S(=O)(=O)N(C)Cc2nc(C(=O)N(C)Cc3ccc(C[N+]4([O-])CCCC4)cc3)co2)c(C)c1 [Ex 159, 2-({[(4-Methoxy-2,6-dimethylphenyl)sulfonyl](methyl)amino}methyl)-N-methyl-N-{4-[(1-oxidopyrrolidin-1-yl)methyl]benzyl}-1,3-oxazole-4-carboxamide trifluoroacetate] | 100 to 1000 |
| COc1cc(C)c(S(=O)(=O)N(Cc2nc(C(=O)N(C)C3CCC(N4CCN(C)CC4)CC3)co2)C2CC2)c(C)c1 (stereo not shown) [Ex 243, 2-({Cyclopropyl[(4-methoxy-2,6-dimethylphenyl)sulfonyl]amino}methyl)-N-methyl-N-[4-(4-methylpiperazin-1-yl)cyclohexyl]-1,3-oxazole-4-carboxamide trifluoroacetate] | 10 to 100 |
| COc1cc(C)c(S(=O)(=O)N(Cc2cc(C(=O)N(C)Cc3ccc(CN4CCC(O)CC4)cc3)co2)C2CC2)c(C)c1 [Ex 139, 5-({Cyclopropyl[(4-methoxy-2,6-dimethylphenyl)sulfonyl]amino}methyl)-N-{4-[(4-hydroxypiperidin-1-yl)methyl]benzyl}-N-methylfuran-3-carboxamide] | 10 to 100 |
| COc1cc(C)c(S(=O)(=O)N(C)Cc2cc(C(=O)NCc3ccc(CN4CCCCCC4)cc3)co2)c(C)c1 [Ex 101, N-[4-(Azepan-1-ylmethyl)benzyl]-5-({[(4-methoxy-2,6-dimethylphenyl)sulfonyl](methyl)amino}methyl)furan-3-carboxamide trifluoroacetate] | 100 to 1000 |
